“Also recorded” adds a separate entry of the source. Where two headings read alike, the source gives them in different places. Peptide text beside a SMILES is read from it.
Columns and labels:
[1] = system: SD rats; experiment: Functional observation (mortality, clinical signs) in acute toxicity study; type: in vivo, Sprague Dawley rats; conditions: for mortality: single s.c. 1.0, 10.0, 100 mg/kg or 10.0 mg/kg daily x14 d, cage observation
Experimental: The mortality, general health status, and toxic reaction symptoms of the experimental groups were documented. Before the first day of F3 administration and during the experiments, a detailed clinical observation was carried out and recorded the changes in skin, eyes and mucous membrane, respiratory system, nervous system, activity, and behaviors of the rats. The body weight was measured and recorded before the first day of administration.
Forty SD rats (20 males and 20 females) were randomly divided into 4 groups (Figure 1). All rats were given F3 once on the day of the experiment.
Twelve SD rats (6 males, 6 females) were given a daily subcutaneous injection of F3 at a dose of 10.0 mg/kg for consecutive 14 days. The first day of administration was recorded as day 1.

[2] = Tissue distribution of single subcutaneous injection of F3 (1.0 mg/kg); type: in vivo, Sprague Dawley rats; conditions: LC-MS/MS; for F3 in tissue samples (heart, brain, liver, kidney, lung, spleen, stomach, small intestine, testis, ovaries, subcutaneous fat, skeletal muscle): single s.c. 1.0 mg/kg, 1, 2, 4, 8, 24, 48 h, LOQ in tissues 40–80 ng/g; for level at 4 h / level at 1 h / level at 2 h: Sprague-Dawley, rat, plasma, sc, n=3, read-out: F3 concentration in plasma; for level at 4 h: 4th hr; for level at 1 h: 1 hour after administration; for level at 2 h: mean
Experimental: The concentration of F3 in rat plasma was determined by liquid chromatography-tandem mass spectrometry, using the method established by Kanglong Huacheng Co., Ltd. The analyte was assayed by liquid chromatography coupled with the tandem mass spectrometry (LC-MS/MS) method. The LC-MS/MS system consisted of a Shimadzu HPLC system (Kyoto, Japan) and an LCMS-8060 instrument (serial no. 011105500332 AE). The following were the LC conditions: column, HALO ES-C18 2.7 µ C18 160A (50 × 2.1 mm); gradient elution at 0.5 mL/min with 5% acetonitrile in water containing 0.1% formic acid or 95% acetonitrile in water containing 0.1% formic acid; and injection volume of 10 µL. A multiple reaction monitoring (MRM) method was selected for quantitative analysis. For analyte and internal standard, the optimum transitions were 519.50 > 129.15 (five charges) and 649.15 > 120.10 (four charges), 393.20 > 373.25, and 237.15 > 194.15, respectively. The instrumental parameters were set as follows: nebulizing gas flow was 3 L/min; heating gas flow was 10 L/min; interface temperature was 300°C; DL temperature was 250°C; and heat block temperature was 400°C.
Thirty-six SD rats (18 females, 18 males) were randomly selected and given a single subcutaneous injection of F3 at 1.0 mg/kg. Tissue samples were collected at 1, 2, 4, 8, 24, and 48 hours after F3 administration. At each time point, six rats (3 of each sex) were sacrificed. At least 0.5 ml of whole blood was collected before euthanasia, and 0.5–1.0 g of tissue was collected after euthanasia. The heart, brain, liver, kidney, lung, spleen, stomach, small intestine, testis, ovary, subcutaneous fat, and skeletal muscle were among the tissue types studied.
The desired serial concentrations of working solutions were achieved by diluting stock solution (1 mg/mL in DMSO) of analyte with 50% acetonitrile in water. 5 μL of working solutions (10 to 10000 ng/mL) were added to 50 μL of the blank rat plasma and tissues to achieve calibration standards or quality control (QC) samples of 1 to 1000 ng/mL in a total volume of 55 μL.
The resulting standard, QC, or study samples were added to 200 μL of methanol containing IS (50 ng/mL dexamethasone, 2 ng/mL verapamil and 2 ng/mL carbamazepine as internal standard (IS) for protein precipitation. All samples were then vortexed for 30 seconds. After centrifugation at 4°C and 4000 rpm (ca. 3740 x g) for 15 minutes, 100 µL of the supernatant was diluted with 200 µL of water for injection on LC-MS/MS.

[3] = female SD rats, single s.c. 1.0 mg/kg
[4] = male SD rats, single s.c. 1.0 mg/kg

CC[C@H](C)[C@H](NC(=O)[C@H](CO)NC(=O)CNC(=O)[C@H](CC(C)C)NC(=O)[C@@H](NC(=O)CNC(=O)[C@H](Cc1ccccc1)NC(=O)[C@H](CC(C)C)NC(=O)CN)C(C)C)C(=O)N[C@@H](C)C(=O)N[C@@H](CCCCN)C(=O)N[C@@H](Cc1c[nH]cn1)C(=O)N[C@H](C(=O)N[C@@H](CC(C)C)C(=O)N1CCC[C@H]1C(=O)N[C@@H](Cc1c[nH]cn1)C(=O)N[C@H](C(=O)N[C@H](C(=O)N1CCC[C@H]1C(=O)N[C@H](C(=O)N[C@H](C(=O)N[C@@H](C)C(=O)N[C@@H](CCC(=O)O)C(=O)N[C@@H](CCCCN)C(=O)N[C@@H](CC(C)C)C(N)=O)[C@@H](C)CC)C(C)C)C(C)C)C(C)C)C(C)C [F3, Caerin 1.9] (H-GLFGVLGSIAKHVLPHVVPVIAEKL-NH2)
clinical observation: scabs at the injection site ([1]; s.c. 10.0 mg/kg daily x14 d, 6 M/6 F): scabs were discovered at the injection site in one female rat, three female rats, and two male rats on the 8th, 12th, and 15th days, respectively
clinical observation (fur, eyes, mucosa, respiratory, circulatory, nervous system, behaviors) ([1]; single s.c. 1.0 mg/kg or 10.0 mg/kg): no abnormalities
clinical observation: dorsal scabs ([1]; single s.c. 100.0 mg/kg, 5 M/5 F): one male and two female rats on day 8 and two female rats on day 15 developed dorsal scabs
mortality [1]: no rats receiving F3 were found dead or dying; also recorded: No dead or dying rats were observed
mortality ([1]; listed as Caerin 1.9): does not cause mortality or organ malfunction
F3 in tissue samples (heart, brain, liver, kidney, lung, spleen, stomach, small intestine, testis, ovaries, subcutaneous fat, skeletal muscle) ([2]; SD rats, 1 mg/kg): No detectable F3
F3 in tissue samples (heart, brain, liver, kidney, lung, spleen, stomach, small intestine, testis, ovaries, subcutaneous fat, skeletal muscle) ([2]; SD rats, listed as Caerin 1.9, 1 mg/kg): < 40 ng/g
F3 in plasma samples collected at other time points ([2]; SD rats, single s.c. 1.0 mg/kg, time points other than 1, 2, 4 h (8, 24, 48 h)): No detectable F3
level at 4 h [2, 3]: 19.4 ± 5.96 ng/mL
level at 1 h [2, 3]: 174 ± 43 ng/mL
level at 2 h [2, 3]: 49.7 ± 1.71 ng/mL
level at 4 h [2, 4]: 20 ± 9.73 ng/mL
level at 1 h [2, 4]: 165 ± 46.5 ng/mL
level at 2 h [2, 4]: 104 ± 25.5 ng/mL

— paper PMC9363195, “Preclinical Pharmacokinetics, Biodistribution, and Acute Toxicity Evaluation of Caerin 1.9 Peptide in Sprague Dawley Rats” (Evidence-based Complementary and Alternative Medicine : eCAM, 2022)
